Data as given in ChEMBL document CHEMBL6127049, “Discovery of the selective and nanomolar inhibitor of DPP-4 more potent than sitagliptin by structure-guided rational design” (Eur J Med Chem, 2024).
pIC50: −log10 of the molar value. The source made the active and inactive calls. The calls are words filed in the database; no cut-off is given here.

Assays:
Rattus norvegicus [1] = assay: Reduction of alkaline phosphatase (ALP) level in STZ-induced type 2 diabetes male Wistar albino rat model at 10 mg/kg, po measured after 4 weeks by hepatic function test; format: functional, organism-based
Rattus norvegicus [2] = assay: Antihyperlipidemic effect in STZ-induced type 2 diabetes male Wistar albino rat model assessed as triglyceride level at 20 mg/kg, po measured after 4 weeks (reference value: 190.23 +/- 4.37 mg/dL); format: functional
Rattus norvegicus [3] = assay: Anti-diabetic activity in normal Wistar rat model assessed as blood glucose level at 20 mg/kg, po followed by treated administered 3 mg/kg orally measured after 60 mins by Oral glucose tolerance test (reference value: 153.74 + /- 3.94 mg/dL); format: functional; details: 1 h
Rattus norvegicus [4] = assay: Reduction of insulin level in STZ-induced type 2 diabetes male Wistar albino rat model at 20 mg/kg, po measured after 4 weeks by hepatic function test; format: functional, organism-based
Rattus norvegicus [5] = assay: Antihyperlipidemic effect in STZ-induced type 2 diabetes male Wistar albino rat model assessed as LDL level at 20 mg/kg, po measured after 4 weeks (reference value: 184.65 +/- 4.57 mg/dL); format: functional
[6] = Acute toxicity in Balb/C mouse assessed as morphological changes in convulsions at 1250 to 2000 mg/kg, po; format: organism-based; details: in vivo, dose 1250-2000 mg/kg
Rattus norvegicus [7] = assay: Reduction of serum glutamate pyruvate transaminase (SGPT) level in STZ-induced type 2 diabetes male Wistar albino rat model at 20 mg/kg, po measured after 4 weeks by hepatic function test; format: functional, organism-based
Rattus norvegicus [8] = assay: Anti-diabetic activity in normal Wistar rat model assessed as blood glucose level at 10 mg/kg, po followed by treated administered 3 mg/kg orally measured immediately after administration by Oral glucose tolerance test (reference value: 105.12 mg/dL); format: functional
Rattus norvegicus [9] = assay: Antihyperlipidemic effect in STZ-induced type 2 diabetes male Wistar albino rat model assessed as total cholesterol level at 20 mg/kg, po measured after 4 weeks (reference value: 227.04 +/- 4.10 mg/dL); format: functional
Rattus norvegicus [10] = assay: Anti-diabetic activity in STZ-induced type 2 diabetes male Wistar albino rat model assessed as fasting blood glucose level at 20 mg/kg, po measured on day 28; format: functional; details: time 28 day
Rattus norvegicus [11] = assay: Reduction of alkaline phosphatase (ALP) level in STZ-induced type 2 diabetes male Wistar albino rat model at 20 mg/kg, po measured after 4 weeks by hepatic function test; format: functional, organism-based
Rattus norvegicus [12] = assay: Antihyperlipidemic effect in STZ-induced type 2 diabetes male Wistar albino rat model assessed as HDL level at 10 mg/kg, po measured after 4 weeks (reference value: 25.54 +/- 2.62 mg/dL); format: functional
Rattus norvegicus [13] = assay: Anti-diabetic activity in normal Wistar rat model assessed as blood glucose level at 20 mg/kg, po followed by treated administered 3 mg/kg orally measured immediately after administration by Oral glucose tolerance test (reference value: 105.12 mg/dL); format: functional
[14] = Acute toxicity in Balb/C mouse assessed as changes in general appearance at 1250 to 2000 mg/kg, po; format: organism-based; details: in vivo, dose 1250-2000 mg/kg
[15] = Acute toxicity in Balb/C mouse assessed as morphological changes in fur at 1250 to 2000 mg/kg, po; format: organism-based; details: in vivo, dose 1250-2000 mg/kg
Dipeptidyl peptidase 9 = Dipeptidyl peptidase 9 (Homo sapiens, UniProt Q86TI2); assay: Inhibition of DPP9 (unknown origin) assessed as hydrolysis rate using Gly-pro-p-nitroanilide as substrate measured after 20 mins incubation by […] assay
Rattus norvegicus [16] = assay: Anti-diabetic activity in normal Wistar rat model assessed as blood glucose level at 20 mg/kg, po followed by treated administered 3 mg/kg orally measured after 30 mins by Oral glucose tolerance test (reference value: 176.14 + /- 4.04 mg/dL); format: functional; details: 0.5 h
Rattus norvegicus [17] = assay: Anti-diabetic activity in normal Wistar rat model assessed as blood glucose level at 10 mg/kg, po followed by treated administered 3 mg/kg orally measured after 120 mins by Oral glucose tolerance test (reference value: 126.5 + /- 3.90 mg/dL); format: functional; details: 2 h
[18] = Acute toxicity in Balb/C mouse assessed as morphological changes in nose at 1250 to 2000 mg/kg, po; format: organism-based; details: in vivo, dose 1250-2000 mg/kg
[19] = Acute toxicity in Balb/C mouse assessed as morphological changes in salvation at 1250 to 2000 mg/kg, po; format: organism-based; details: in vivo, dose 1250-2000 mg/kg
[20] = Acute toxicity in Balb/C mouse assessed as morphological changes in unusual behavior at 1250 to 2000 mg/kg, po; format: organism-based; details: in vivo, dose 1250-2000 mg/kg
Rattus norvegicus [21] = assay: Anti-diabetic activity in STZ-induced type 2 diabetes male Wistar albino rat model assessed as fasting blood glucose level at 20 mg/kg, po measured on day 14; format: functional; details: time 14 day
Rattus norvegicus [22] = assay: Anti-diabetic activity in normal Wistar rat model assessed as blood glucose level at 10 mg/kg, po followed by treated administered 3 mg/kg orally measured after 90 mins by Oral glucose tolerance test (reference value: 134.11 + /- 4.64 mg/dL); format: functional; details: 1.5 h
[23] = Acute toxicity in Balb/C mouse assessed as morphological changes in skin at 1250 to 2000 mg/kg, po; format: organism-based; details: in vivo, dose 1250-2000 mg/kg
Dipeptidyl peptidase 8 = Dipeptidyl peptidase 8 (Homo sapiens, UniProt Q6V1X1); assay: Inhibition of DPP8 (unknown origin) assessed as hydrolysis rate using Gly-pro-p-nitroanilide as substrate measured after 20 mins incubation by […] assay
Rattus norvegicus [24] = assay: Anti-diabetic activity in STZ-induced type 2 diabetes male Wistar albino rat model assessed as fasting blood glucose level at 20 mg/kg, po measured on day 7; format: functional; details: time 7 day
Rattus norvegicus [25] = assay: Anti-diabetic activity in STZ-induced type 2 diabetes male Wistar albino rat model assessed as fasting blood glucose level at 20 mg/kg, po measured on day 1; format: functional; details: time 1 day
[26] = Acute toxicity in Balb/C mouse assessed as morphological changes in diarrhea at 1250 to 2000 mg/kg, po; format: organism-based; details: in vivo, dose 1250-2000 mg/kg
Rattus norvegicus [27] = assay: Antihyperlipidemic effect in STZ-induced type 2 diabetes male Wistar albino rat model assessed as HDL level at 20 mg/kg, po measured after 4 weeks (reference value: 25.54 +/- 2.62 mg/dL); format: functional
Rattus norvegicus [28] = assay: Anti-diabetic activity in normal Wistar rat model assessed as blood glucose level at 20 mg/kg, po followed by treated administered 3 mg/kg orally measured after 120 mins by Oral glucose tolerance test (reference value: 126.5 + /- 3.90 mg/dL); format: functional; details: 2 h
Rattus norvegicus [29] = assay: Reduction of serum glutamate oxaloacetate transaminase (SGOT) level in STZ-induced type 2 diabetes male Wistar albino rat model at 10 mg/kg, po measured after 4 weeks by hepatic function test; format: functional, organism-based
Rattus norvegicus [30] = assay: Anti-diabetic activity in normal Wistar rat model assessed as blood glucose level at 10 mg/kg, po followed by treated administered 3 mg/kg orally measured after 30 mins by Oral glucose tolerance test (reference value: […] 176.14 + /- 4.04 mg/dL); format: functional; details: 0.5 h
Rattus norvegicus [31] = assay: Reduction of serum glutamate oxaloacetate transaminase (SGOT) level in STZ-induced type 2 diabetes male Wistar albino rat model at 20 mg/kg, po measured after 4 weeks by hepatic function test; format: functional, organism-based
Rattus norvegicus [32] = assay: Antihyperlipidemic effect in STZ-induced type 2 diabetes male Wistar albino rat model assessed as total cholesterol level at 10 mg/kg, po measured after 4 weeks (reference value: 227.04 +/- 4.10 mg/dL); format: functional

Chain of Dipeptidyl peptidase 8 (Q6V1X1 whole entry): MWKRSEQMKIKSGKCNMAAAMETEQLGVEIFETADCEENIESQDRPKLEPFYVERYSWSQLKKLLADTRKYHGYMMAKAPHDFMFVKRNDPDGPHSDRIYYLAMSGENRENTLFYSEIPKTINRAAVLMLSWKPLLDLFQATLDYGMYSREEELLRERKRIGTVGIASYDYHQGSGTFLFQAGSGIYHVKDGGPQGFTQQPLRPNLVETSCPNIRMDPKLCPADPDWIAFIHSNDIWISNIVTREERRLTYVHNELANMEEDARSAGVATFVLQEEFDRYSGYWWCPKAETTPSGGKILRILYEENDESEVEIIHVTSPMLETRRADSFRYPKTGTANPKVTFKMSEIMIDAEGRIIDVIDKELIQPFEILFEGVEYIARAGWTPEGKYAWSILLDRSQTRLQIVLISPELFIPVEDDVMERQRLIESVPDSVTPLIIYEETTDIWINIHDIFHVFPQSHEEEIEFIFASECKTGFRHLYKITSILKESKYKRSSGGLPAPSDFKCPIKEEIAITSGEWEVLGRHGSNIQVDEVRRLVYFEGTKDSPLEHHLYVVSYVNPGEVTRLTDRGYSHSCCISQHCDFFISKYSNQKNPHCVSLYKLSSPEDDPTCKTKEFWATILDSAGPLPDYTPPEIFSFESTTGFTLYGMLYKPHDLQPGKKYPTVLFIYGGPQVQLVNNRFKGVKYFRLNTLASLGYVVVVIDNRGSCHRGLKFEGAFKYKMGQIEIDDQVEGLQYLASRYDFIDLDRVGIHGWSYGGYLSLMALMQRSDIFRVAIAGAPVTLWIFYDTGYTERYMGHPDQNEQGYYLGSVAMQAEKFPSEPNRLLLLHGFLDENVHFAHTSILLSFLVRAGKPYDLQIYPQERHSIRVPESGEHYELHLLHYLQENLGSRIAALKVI
Chain of Dipeptidyl peptidase 9 (Q86TI2 whole entry): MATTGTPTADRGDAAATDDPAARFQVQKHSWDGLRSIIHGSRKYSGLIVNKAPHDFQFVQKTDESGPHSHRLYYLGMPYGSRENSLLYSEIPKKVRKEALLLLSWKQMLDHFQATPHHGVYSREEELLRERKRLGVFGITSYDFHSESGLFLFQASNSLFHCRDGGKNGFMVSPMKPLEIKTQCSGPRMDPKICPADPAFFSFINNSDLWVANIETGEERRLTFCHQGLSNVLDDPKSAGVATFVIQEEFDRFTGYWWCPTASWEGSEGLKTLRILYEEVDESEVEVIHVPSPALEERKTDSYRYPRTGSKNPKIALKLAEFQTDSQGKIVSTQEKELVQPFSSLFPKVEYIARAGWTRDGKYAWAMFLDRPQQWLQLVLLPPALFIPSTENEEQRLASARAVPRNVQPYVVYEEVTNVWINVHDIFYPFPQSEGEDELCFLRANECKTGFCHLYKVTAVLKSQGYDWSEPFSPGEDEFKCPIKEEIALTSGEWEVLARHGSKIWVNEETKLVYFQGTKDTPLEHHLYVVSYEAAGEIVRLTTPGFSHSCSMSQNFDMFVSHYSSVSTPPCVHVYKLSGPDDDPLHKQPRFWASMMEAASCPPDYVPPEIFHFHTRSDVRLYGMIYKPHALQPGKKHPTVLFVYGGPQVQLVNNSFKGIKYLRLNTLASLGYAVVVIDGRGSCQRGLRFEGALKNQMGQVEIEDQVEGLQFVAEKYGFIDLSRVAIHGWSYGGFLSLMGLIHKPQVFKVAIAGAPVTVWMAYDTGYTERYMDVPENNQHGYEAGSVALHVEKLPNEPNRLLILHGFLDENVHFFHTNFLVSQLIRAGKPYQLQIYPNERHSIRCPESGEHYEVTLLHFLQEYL

SMILES: CC1=C([N+](=O)[O-])C(c2ccc(F)c(F)c2)N=C(N)N1C(=O)CN1Cc2cn(S(C)(=O)=O)nc2C1 (centres undefined)
- Activity (Rattus norvegicus [1]): Active
- Activity (Rattus norvegicus [2]): 118.76 mg/dL
- Activity (Rattus norvegicus [3]): 115.22 mg/dL
- Activity (Rattus norvegicus [4]): Active
- Activity (Rattus norvegicus [5]): 114.54 mg/dL
- Activity [6]: Non-Toxic
- Activity (Rattus norvegicus [7]): Active
- Activity (Rattus norvegicus [8]): 103.57 mg/dL
- Activity (Rattus norvegicus [9]): 137.34 mg/dL
- Activity (Rattus norvegicus [10]): 117 mg/dL
- Activity (Rattus norvegicus [11]): Active
- Activity (Rattus norvegicus [12]): 46.32 mg/dL
- Activity (Rattus norvegicus [13]): 101.87 mg/dL
- Activity [14]: Non-Toxic
- Activity [15]: Non-Toxic
- pIC50 (Dipeptidyl peptidase 9): 6.06
- Activity (Rattus norvegicus [16]): 119.42 mg/dL
- Activity (Rattus norvegicus [17]): 115.78 mg/dL
- Activity [18]: Non-Toxic
- Activity [19]: Non-Toxic
- Activity [20]: Non-Toxic
- Activity (Rattus norvegicus [21]): 167 mg/dL
- Activity (Rattus norvegicus [22]): 113.96 mg/dL
- Activity [23]: Non-Toxic
- pIC50 (Dipeptidyl peptidase 8): 5.54
- Activity (Rattus norvegicus [24]): 188 mg/dL
- Activity (Rattus norvegicus [25]): 294 mg/dL
- Activity [26]: Non-Toxic
- Activity (Rattus norvegicus [27]): 54.1 mg/dL
- Activity (Rattus norvegicus [28]): 111.56 mg/dL
- Activity (Rattus norvegicus [29]): Active
- Activity (Rattus norvegicus [30]): 123.04 mg/dL
- Activity (Rattus norvegicus [31]): Active
- Activity (Rattus norvegicus [32]): 153.02 mg/dL
